Measured values reported in US11440880B2, “Thalidomide analogs and methods of use” (The USA, as represented by the Secretary, Department of …, priority 2015, dated 2022).
Entries after “also recorded” stand apart in the source; their conditions may differ.

What was measured:
[1] = system: fli1:EGFP zebrafish embryos (intersegmental vessel growth); assay: fli1:EGFP zebrafish embryo angiogenesis assay; type: in vivo; set-up: fli1:EGFP angiogenesis n (survived/tested): concentration or dose not given beside the values; conditions: for minimal effective concentration: Danio rerio, lowest concentration producing an effect, compounds not producing an effect shown at the highest evaluated concentration; for fli1:EGFP angiogenesis n (survived/tested): embryos alive after 24 hours of exposure
How it was run: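 fli1:EGFP embryos grown 24 hpf, dechorionated and exposed to compound or vehicle over a range of concentrations for up to 24 h, with CPS49 as positive control. Imaged at 48 hpf for intersegmental vessel formation and growth; survival after 24 h exposure recorded, and values reflect the lowest concentration producing an effect.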

[2] = system: mpo:GFP zebrafish embryos (neutrophil migration to the wound site); assay: mpo:GFP zebrafish fin-clip neutrophil migration (inflammation) assay; type: in vivo; set-up: mpo:GFP inflammation n (survived/tested): concentration or dose not given beside the values; conditions: for minimal effective concentration: Danio rerio, Neutrophil, lowest concentration producing an effect, compounds not producing an effect shown at the highest evaluated concentration; for mpo:GFP inflammation n (survived/tested): embryos survived/tested at the concentration given
How it was run: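 Tg(mpo::EGFP) larvae tail-fin clipped (dorsal third removed) at 72 hpf, then immersed in compound or vehicle. Neutrophils migrating to the wound site counted from images 24 h later; at least 50% reduction scored as anti-inflammatory. Viability and morphology also assessed.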

[3] = system: WT zebrafish embryos; assay: WT zebrafish embryo development / teratogenicity; type: in vivo, zebrafish (Danio rerio); conditions: in words; at concentrations active in fli1:EGFP or mpo:GFP assays
Description: To determine the effects of the candidate compounds on embryonic development, two in vivo model systems (developing zebrafish and chicken embryos) were utilized.
Malformations in the development of the zebrafish embryo were noted, including inhibition of eye, otic vesicle and fin development (FIGS. 7A-7F). […] Embryos were screened at concentrations previously determined, in this study, to be anti-angiogenic or anti-inflammatory in the fli1:EGFP and mpo:GFP assays respectively.
(§1) Concentrations used in the WT zebrafish and chicken embryo assays to assess for teratogenesis, were equal to or higher than those utilized in the fil1:EGFP and mpo:GFP zebrafish assays

[4] = system: chicken embryos; assay: Chicken embryo development / teratogenicity; type: in vivo, white leghorn chicken; conditions: in words; applied at HH stage 17-18
Description: Chicken Embryology: Fertilized white leghorn chicken embryos were incubated at 38° C. and staged according to Hamburger and Hamilton (HH) stages of development (1951). Embryos were tested at HH stage 17-18 (day 2.5). Following membrane removal, test compounds or vehicle control solutions were applied globally over the embryo. The eggs were sealed and the development of the embryos was monitored up to HH stage 30 (E9).
Compounds of interest were screened in chicken embryos (FIGS. 7I-7P).
as §1

[5] = system: TNF-α protein; assay: TNF-α protein level (ELISA) in LPS-challenged RAW 264.7 cells; type: cell-based, mouse; set-up: key: NS=not significant; a “+” sign=anti-inflammatory or increased cell numbers; a “−” sign=cell toxicity or pro-inflammatory; conditions: LPS 30 or 60 ng/mL, 24 h
How it was run: (§2)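 RAW 264.7 cells pretreated 1 h with compound in DMSO vehicle, then challenged with LPS (30 or 60 ng/mL) for 24 h at 37° C. Conditioned-media nitrite by Griess (520 nm, sodium nitrite standard curve, 1.5 μM cutoff) in μM; mouse TNF-α by ELISA as pg/ml or % change from control.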

[6] = system: nitrite levels in the culture media; assay: Nitrite level (Griess Reagent System) in LPS-challenged RAW 264.7 cells; type: cell-based, mouse; set-up: key: NS=not significant; a “+” sign=anti-inflammatory or increased cell numbers; a “−” sign=cell toxicity or pro-inflammatory; conditions: LPS 30 or 60 ng/mL, 24 h
How it was run: as §2

[7] = system: RAW 264.7 cells; assay: Cell viability (CellTiter 96 AQueous One) of LPS-challenged RAW 264.7 cells; type: cell-based, mouse; set-up: key: NS=not significant; a “+” sign=anti-inflammatory or increased cell numbers; a “−” sign=cell toxicity or pro-inflammatory
How it was run: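 RAW 264.7 murine macrophages pretreated 1 h with compound or DMSO vehicle, then challenged with LPS (serotype 055:B5) at 30 or 60 ng/mL final for 24 h. After media replacement, viability measured by tetrazolium (MTS) conversion, absorbance at 490 nm, reported as O.D.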

[8] = system: human saphenous vein sections (microvessel outgrowth); assay: Human saphenous vein assay of angiogenesis (ex vivo); type: cell-based; conditions: positive control, 10 days of incubation
Description: The saphenous vein was cleaned of subcutaneous tissue and embedded in Matrigel® matrix as previously described. After 10 days of incubation, the transverse sections of the veins were imaged. The outgrowth between the vehicle and no treatment (media) control was equivalent (106.65%±20.14, n=2 and 103.35%±4.06, n=2 respectively; FIGS. 13A and 13B).

Row | SMILES | minimal effective concentration [1] [µg/mL] | fli1:EGFP angiogenesis n (survived/tested) [1] | concentration at which anti-angiogenic activity was shown ([1]; exposure from 24 hpf, imaged at 48 hpf) [µg/mL] | minimal effective concentration [2] [µg/mL] | mpo:GFP inflammation n (survived/tested) [2] | effect on development / mortality of zebrafish embryos [3] | effect on development / mortality of chicken embryos [4] | TNF-α ([5]; 1 μM) | TNF-α ([5]; 10 μM) | TNF-α ([5]; 30 μM) | Nitrite ([6]; 1 μM) | Nitrite ([6]; 10 μM) | Nitrite ([6]; 30 μM) | Viability ([7]; 1 μM) | Viability ([7]; 10 μM) | Viability ([7]; 30 μM) | vessel outgrowth [8]
1 | O=C1c2ccccc2C(=S)N1C1CCC(=S)NC1=S (stereo not drawn) [Compound 4] | 1.5 | 4/11 | 1.5 | 10 | 19/23 | defects and high mortality rates; also recorded: induced defects (e.g., microophthalmia and fin malformation) | defects and high mortality rates |  |  |  |  |  |  |  |  |  | 
2 | Nc1ccc2c(c1)C(=O)N(C1CCC(=O)NC1=O)C2=O (stereo not drawn) [Compound 11] | 50 | 24/43 |  | 10 | 16/22 |  | missing digits in the hindlimb; also recorded: limb reduction defect |  |  |  |  |  |  |  |  |  | 
3 | O=C1NC(=S)CCC1N1C(=O)c2ccc(Cl)cc2C1=O (stereo not drawn) [Compound 23] | 10 | 23/30 |  | 10 | 13/35 |  | constriction in vasculature (white arrow) and necrosis (black arrow) of the chorioallantoic membrane |  |  |  |  |  |  |  |  |  | 
4 | O=C1c2cccc([N+](=O)[O-])c2CN1C12CC3CC(CC(C3)C1)C2 [Compound 76, 2,3-Dihydro-4-nitro-2-(tricyclo[3.3.1.1^3,7]dec-1-yl)-1H-isoindol-1-one] | 10 | 28/32 |  | 100 | 5/11 |  |  | NS | NS | + | NS | + | + | NS | NS | NS | 
5 | CC(N1Cc2c(cccc2[N+](=O)[O-])C1=O)C12CC3CC(CC(C3)C1)C2 (stereo not drawn) [Compound 80] |  |  |  |  |  |  | microophthalmia (asterisk), limb reduction (white arrow), and hemorrhaging throughout the body | NS | + | + | NS | + | + | NS | − | NS | 
6 | O=C1c2cccc([N+](=O)[O-])c2CN1C1C2CC3CC(C2)CC1C3 (stereo not drawn) [Compound 82] | 5 | 18/27 |  | 5 | 8/22 |  |  | NS | + | + | + | + | + | NS | − | − | 
7 | Nc1cccc2c1CN(C1C3CC4CC(C3)CC1C4)C2=O (stereo not drawn) [Compound 83] | 20 | 3/12 |  | 20 | 6/23 |  |  | NS | NS | NS | NS | + | + | NS | NS | NS | 
8 | O=C1c2cccc([N+](=O)[O-])c2CN1C12CC3CC(CC1C3)C2 [Compound 84] | 50 | 2/11 |  | 10 | 12/21 |  |  | NS | NS | NS | NS | + | + | NS | NS | NS | 
9 | Nc1cccc2c1CN(C13CC4CC(CC1C4)C3)C2=O [Compound 85] | 10 | 7/20 |  | 100 | 11/20 |  |  | NS | NS | NS | NS | NS | − | NS | NS | NS | 
10 | CO[C@@H]1[C@H](OC(=O)NC(=O)CCl)CC[C@]2(CO2)[C@H]1[C@@]1(C)O[C@@H]1CC=C(C)C [TNP-470, (Chloracetyl) carbamic acid (3R,4S,5S,6R)-5-methoxy-4-[(2R,3R)-2-methyl-3-(3-methyl-2-butenyl)oxiranyl]-1-oxaspiro[2.5]oct-6-yl ester, reference compound] |  |  |  |  |  |  |  |  |  |  |  |  |  |  |  |  | 9.44%±1.65
